Earlier results as cited in patent US4803081A, “New pharmaceutical preparations with extended release” (Aktiebolaget Hassle, priority 1986, dated 1989).
Converted amounts (≈) assume the structure as drawn. Like-named read-outs stand apart in the source and are kept apart here.

Conditions: for solubility (in words): very low = less than 0.1 per cent by weight in water

solubility (in words)	solubility (in words) (listed as Felodipine)	solubility in water (water) [µg/mL]	SMILES
very low solubility	practically insoluble	0.5 (≈ 1.3 µM)	CCOC(=O)C1=C(C)NC(C)=C(C(=O)OC)C1c1cccc(Cl)c1Cl (centres unmarked) [felodipine, 4-(2,3-dichlorophenyl)-1,4-dihydro-2,6-dimethyl-3,5-pyridinedicarboxylic acid ethyl methyl ester]
very low solubility	–	–	COC1=CC(=O)C[C@@H](C)[C@]12Oc1c(Cl)c(OC)cc(OC)c1C2=O [griseofulvin]

SMILES	solubility (in words)	solubility (in words) (listed as Felodipine)	solubility in water (water) [µg/mL]
O=C1NC(=O)C(c2ccccc2)(c2ccccc2)N1 [phenytoin]	very low solubility	–	–
